Assay [1] has as its system C57BL/6 mice. The assay can be described thus: Hair regrowth after dorsal hair removal in mice. The assay is classed as in vivo. On the procedure: Wild-type C57BL/6 mice (7-8 weeks old) were placed in the lateral decubitus position on a sterile paper sheet after anesthesia using intraperitoneal injection of ketamine (60 mg/kg) and xylazine (4 mg/kg). Sterile surgical instruments (autoclaved) were used during dorsal hair removal. The skin was prepared for hair removal on the dorso-lateral skin (from neck to tail) by shaving with a mechanical shaver, and then hair removal cream (Nair) was placed on the skin for 30-60 seconds. Hair was removed completely by gently wiping the skin with cotton balls soaked in warm water and disinfected using 70% ethanol wipes and betadine 3 times.
After dorsal hair removal, mice were placed in a clean cage on the heating pad for 30 minutes or until recovery. […]
At day 14, the backs of the mice were photographed with a digital camera, to evaluate the darkening of skin color. […] In morphological observation (FIG. 1A and FIG. 1), hair growth area was determined as a percentage after photographing hair growth state on the backs of mice and observation was conducted after hair removal at day 0 and after 4-AP treatment (daily systemic) at day 14. […] The level of hair regrowth/pigmentation was quantified by the intensity of the darkness of the back skin in the same area. […]

For assay [2], the system named is human foreskin primary keratinocytes. The assay can be described thus: Scratch wound healing migration assay, primary keratinocytes. The assay is classed as cell-based. On the procedure: Keratinocytes isolation, culture conditions and characterization—The isolated epidermis was placed in a petri dish containing HEPES buffer for 10 minutes at room temperature, then treated with trypsin at 37° C. until the epidermis became loose and medium cloudy due to keratinocytes release. The cloudy medium was collected and trypsin activity neutralized using fetal bovine serum (FBS) in 1:1 ratio. The epidermis suspended keratinocytes were centrifuges at 1500 rpm for 5 minutes. The pellet resuspended in KGM-GOLD keratinocytes medium (Lonza KGM gold and supplements, Catlog No. 00192151 and 00192152). The isolated foreskin cultured on a culture dish and placed at 37° C. in 5% CO2 incubator for 1-2 days to allow keratinocytes to adhere. Adhere keratinocytes were continued incubation in KGM-Gold medium until cells reach about 80% confluent.
Keratinocytes/Schwann cells/fibroblasts (7×10^4 cells/well keratinocytes and 3.5×10^4 cells/well of SCs and FBs) with their respective medium were seeded on pre-coated either with collagen-I/PLL/no 96-well ImageLock microplate for 6 hours (Incucyte-sartorius plate, Cat log 4379). For the drug treatment cells were pretreated with 4-AP prior to coating for 16-18 hours. Next, the wound scratch was created using IncuCyte automated system (Essen BioScience). After scratches the cells washed with PBS and the respective cells medium was added with or without 1 mM of 4-AP. The plate was incubated in Incucyte automated imaging system, wound healing and cells migration was monitored by time-lapse photography capturing every hour from 0 to 42 hours. The relative area of wound size and cells migration at each time point was analyzed using IncuCyte™ Scratch Wound Cell Migration Software Module (Essen BioScience) and the percent of wound healing was calculated from the area measured after scratching relative to the basal area as expressed in pixels.
Indirect immunofluorescence was used to identify, characterize and to analyze the proliferation after 4-AP treatment. […]

In assay [3] the test system is human foreskin dermal primary fibroblast. Nature of the assay: Scratch wound healing migration assay, primary dermal fibroblasts. The class given is cell-based.
The test system of assay [4] is human foreskin dermal primary Schwann cells. The assay can be described thus: Scratch wound healing migration assay, primary dermal Schwann cells. The assay is classed as cell-based. The method, then: Dermal Schwann cells isolation culture conditions and characterization—The separated dermis was minced into small pieces and placed in a petri dish containing collagenase in DMEM basal medium at 37° C. for 2.5 hours. The dermis was completely dissociated and the medium was cloudy. The dissociated medium was collected in tube and centrifuged at 1500 rpm for 5 minutes. The pellet was resuspended in complete DMEM medium, added on poly-L-lysine coated dish and the dish was incubated at 37° C. in 5% CO2 incubator for overnight. Next day, adhered cells were treated with 10 μM cytosine arabinoside containing DMEM complete medium and incubated at 37° C. in 5% CO2 incubator for 24 hours. After, the cells were cultured in Schwann cells culture medium (ScienCell Research, Catlog No. 1701) until the cells reached about 95% confluence.
Keratinocytes/Schwann cells/fibroblasts (7×10^4 cells/well keratinocytes and 3.5×10^4 cells/well of SCs and FBs) with their respective medium were seeded on pre-coated either with collagen-I/PLL/no 96-well ImageLock microplate for 6 hours (Incucyte-sartorius plate, Cat log 4379). For the drug treatment cells were pretreated with 4-AP prior to coating for 16-18 hours. […] The plate was incubated in Incucyte automated imaging system, wound healing and cells migration was monitored by time-lapse photography capturing every hour from 0 to 42 hours. […]

Regarding `Nc1ccncc1` [4-AP, 4-aminopyridine], in assay [1] (day 14, compared with saline treated mice), the “number of hair follicles (H&E transverse sections)” value is on record as “increased”. Further, in assay [1] (day 14 after hair removal, systemic ip 10-50 μg/daily), the hair regrowth entry is “around 50%”. Further, in assay [2] (1 mM 4-AP, control closed at 32 hours), the “time of complete scratch closure” value was 18 h. Also, in assay [2] (4-AP treated vs no treatment), the “SOX10 and NGF expression in keratinocytes” value is given as “both increased”; the “expression of keratins associated with keratinocyte differentiation (K10)” value is recorded as “did not increase”. Further, the fibroblast migration result in assay [3] (1 mM 4-AP vs no treatment) was “unaffected”. For the same compound, in assay [3] (4-AP exposed vs no treatment), the “vimentin and α-SMA protein expression (fibroblast to myofibroblast conversion)” value is “increased”. Besides, the “time to 80% scratch closure” value in assay [4] (1 mM 4-AP, 23 hours without treatment) was 11 h. Also, the “SOX10 and NGF expression in SCs” value in assay [4] (compared to controls) is listed as “increased”.

(Values after patent publication US20240024216A1, “METHODS AND MATERIALS FOR TREATING HAIR LOSS” (The Penn State Research Foundation, priority 2021, published 2024).)
